Earlier results, collected in patent publication US10481149B2.

System: elimination transporters
Conditions: sandwich-cultured rat hepatocytes; cited from earlier work

COc1ccc(Cl)cc1C(=O)NCCc1ccc(S(=O)(=O)NC(=O)NC2CCCCC2)cc1 [glibenclamide]
interference with rosuvastatin elimination: 29.3%
